Laboratory results from patent US8633195B1, “Method of inhibiting apolipoprotein-E expression comprising administering a triarylmethyl amine compound” (Fresno California State University, priority 2012, dated 2014).

How the values were obtained:
Type in all cases: cell-based
[1] = test system: apoE expression in human CCF-STTG1 astrocytoma cells; assay: ApoE ELISA on conditioned medium of human CCF-STTG1 astrocytoma cells; details: 10 μM compound, 24 hours; for ApoE (ng/ml) Normalized for Cell Count and Vehicle Treatment: normalized to DMSO treated cells
Protocol: The triarylmethyl amine compounds, including the ones shown in TABLE 1, were tested for biological effects on mammalian cells in an ELISA, an assay well-known in the art. […] The ELISA technique involves immobilizing an apoE-specific capture antibody to a 96-well plate, addition of sample (conditioned medium from astrocytoma cells treated with the compound for 24 hours), and detection of the bound apoE using a second apoE-specific biotinylated antibody and streptavidin-HRP.
The Mabtech ELISA kit detects the presence of three apoE isoforms: apoE2, apoE3, and apoE4.
All triarylmethyl amine compounds listed in Table 1 were individually dissolved in DMSO at a stock concentration of 10 mM and individually tested. For ELISA's, 1.6×10^4 cells/96-well were grown for 1 day in RPMI, followed by a 24 hour equilibration in serum-free Opti-MEM (Life Technologies). Treatments were carried out in quadruplicate with 100 μL of fresh Opti-MEM containing 10 μM of compound or vehicle (0.1% DMSO) for 24 hours. Conditioned medium from these samples were then diluted 2-fold with incubation buffer (PBS+0.05% Tween-20+0.1% BSA) and analyzed with a human apoE HRP ELISA kit (Mabtech) according to the manufacturer's protocol. ApoE concentration in the sample was calculated based on a standard curve derived using known amounts of purified apoE supplied with the kit. The cells in the 96-well plates were used to determine the total cell number using CyQUANT reagent (Life Technologies).
The astrocytoma cells were treated for 24 hours with a 10 μM concentration of each of the individual 37 compounds listed in Table 1.

[2] = test system: apoE mRNA in HepG2 human liver cells; assay: ApoE mRNA qPCR in HepG2 liver cells; details: 24 hours in OptiMEM, HPRT1 and β-actin as housekeeping genes
From the text: (§1) Quantitative reverse transcription polymerase chain reaction (qPCR) is a laboratory technique used to amplify and quantify the steady-state levels of apoE messenger RNA (mRNA) by converting the copy DNA (cDNA). The targeted DNA molecule quantity can be determined as a relative amount when normalized to housekeeping genes. For qPCR, reverse transcription is used to quantify the amount of mRNA produced through the balance between transcription rate and degradation rates. The amount of mRNA available is the one factor which can affect the overall protein expression. Quantification of the cDNA produced during reverse transcription of the mRNA may be accomplished by detecting the fluorescent markers, such as fluorophores, that selectively hybridize with the DNA target.
(§2) The HepG2 (ATCC, HB-8065) human liver cells were treated with one of the selected triarylmethyl amine compounds for 24 hours in OptiMEM. The selected triarylmethyl amine compounds were individually dissolved in DMSO at a stock concentration of 10 mM and individually tested. Total RNA was extracted using the RNeasy Plus Mini Kit (Qiagen). Genomic DNA (gDNA) was removed by centrifugation through gDNA eliminator spin columns included with the kit. Samples of total RNA were reverse transcribed following instructions in the Superscript III first strand synthesis kit (Life Technologies). ApoE, HPRT1, and β-actin cDNA levels were quantified by TaqMan multiplex quantitative PCR using a CFX96 Real-Time PCR Detection System (BioRad). Reactions were carried out with SensiMix II Probe Master Mix (Bioline) in a 20 μl total volume containing 5-30 ng of cDNA template. Fluorescent labels and primer/probe concentrations were as follows: apoE (5′-FAM, 600 nM/300 nM), HPRT1 (5′-TEX-615, 100 nM/25 nM), and β-actin (5′-Cy5, 100 nM/25 nM). ZEN double quenched probes (Integrated DNA technologies) were used for all apoE reactions. The reactions were performed in triplicate and the results were analyzed using qbasePLUS (Biogazelle) with HPRT1 and β-actin as housekeeping genes.

[3] = test system: apoE expression in human HepG2 liver cells; assay: ApoE ELISA on conditioned medium of human HepG2 liver cells; details: 10 μM compound, 24 hours, normalized to DMSO treated wells
Protocol: To obtain the data shown in Table 4, the human HepG2 liver cells (ATCC, HB-8065 were maintained in RPMI medium (Mediatech) supplemented with 10 mM HEPES, 1 mM sodium pyruvate, 4.5 g/L glucose, 1% penicillin/streptomycin, and 10% bovine growth serum (HyClone) at 37° C. with 5% CO2
Compound Nos. 13, 31, 33, 35 or 36—as listed in Table 1—were individually dissolved in DMSO at a stock concentration of 10 mM and individually tested. For ELISA's, 1.6×10^4 cells/96-well were grown for 1 day in RPMI, followed by a 24 hour equilibration in serum-free Opti-MEM (Life Technologies). Treatments were carried out in quadruplicate with 100 μL of fresh Opti-MEM containing 10 μM of compound or vehicle (0.1% DMSO) for 24 hours. Conditioned medium from these samples were then diluted 2-fold with incubation buffer (PBS+0.05% Tween-20+0.1% BSA) and analyzed with a human apoE HRP ELISA kit (Mabtech) according to the manufacturer's protocol.
A standard curve was used to derive sample apoE concentrations. The cells in the 96-well plates were used to determine the total cell number using CyQUANT reagent (Life Technologies). Sample apoE concentrations were adjusted for total cell number and then normalized to DMSO treated wells. Results for each set of compounds tested in parallel (n=3) were analyzed by a one-tailed t-test.
The data in Table 3 were obtained by using an apoE ELISA assay to monitor human HepG2 cell production of apoE after the HepG2 cells were treated with Compound Nos. 13, 31, 33, 35 and 36, as listed on Table 1. The HepG2 liver cells were treated for 24 hours with a 10 μM concentration of each of Compound Nos. 13, 31, 33, 35 and 36, as listed on Table 1.

[4] = test system: apoE mRNA in CCF-STTG1 human astrocytoma cells; assay: ApoE mRNA qPCR in CCF-STTG1 astrocytoma cells; set-up: unit not given here; details: 24 hours in OptiMEM, HPRT1 and β-actin as housekeeping genes
From the text: as §1
as §2, with “CCF-STTG1” for “HepG2”, “CRL-1718)” for “HB-8065)”, “astrocytoma” for “liver”, “μL” for “μl”

[5] = test system: apoE mRNA in H4 human neuroglioma cells; assay: ApoE mRNA qPCR in H4 neuroglioma cells; set-up: unit not given here; details: 24 hours in OptiMEM, HPRT1 and β-actin as housekeeping genes
From the text: as §1
The selected triarylmethyl amine compounds were individually dissolved in DMSO at a stock concentration of 10 mM and individually tested. Total RNA was extracted using the RNeasy Plus Mini Kit (Qiagen). Genomic DNA (gDNA) was removed by centrifugation through gDNA eliminator spin columns included with the kit. Samples of total RNA were reverse transcribed following instructions in the Superscript III first strand synthesis kit (Life Technologies). ApoE, HPRT1, and β-actin cDNA levels were quantified by TaqMan multiplex quantitative PCR using a CFX96 Real-Time PCR Detection System (BioRad).

Structure (SMILES)	Inhibition Percentage of ApoE Expression [1]	ApoE (ng/ml) Normalized for Cell Count and Vehicle Treatment [1]	Inhibition Percentage of ApoE Expression ([1]; listed as compound 31)	ApoE (ng/ml) Normalized for Cell Count and Vehicle Treatment [2]	ApoE (ng/ml) Normalized for Cell Count and Vehicle Treatment [3]	ApoE (ng/ml) Normalized for Cell Count and Vehicle Treatment [4]	Inhibition Percentage of ApoE Expression ([1]; listed as compound 36)	Inhibition Percentage of ApoE Expression ([1]; listed as compound 35)	Inhibition Percentage of ApoE Expression ([1]; listed as compound 33)	ApoE (ng/ml) Cell Count Normalized for Cell Count and Vehicle Treatment [5]
CCN(CC)C(c1ccccc1)(c1ccccc1)c1ccc(OC)cc1 [Compound 17, Diethyl-[(4-methoxy-phenyl)-diphenyl-methyl]-amine]	17%	0.83 ng/mL								
c1ccc(C(c2ccccc2)(c2ccc3ccccc3c2)N2CCCC2)cc1 [Compound 31, 1-(naphthalen-2-yl-diphenyl-methyl)-pyrrolidine]	49%	0.51 ng/mL	about 49%	0.86 ratio to vehicle	0.64 ng/mL	0.86				
CN(C)C(c1ccccc1)(c1ccccc1)c1ccc2ccccc2c1 [Compound 28]	35%	0.65 ng/mL								
CCC(C)NC(c1ccccc1)(c1ccccc1)c1ccc2ccccc2c1 (stereo not shown) [Compound 36, sec-butyl-(naphthalen-2-yl-diphenyl-methyl)-amine]	66%	0.34 ng/mL		0.93 ratio to vehicle	0.81 ng/mL	0.85	about 66%			
CC(C)CNC(c1ccccc1)(c1ccccc1)c1ccc2ccccc2c1 [Compound 35, isobutyl-(naphthalen-2-yl-diphenyl-methyl)-amine]	50%	0.50 ng/mL		1.03 ratio to vehicle	0.78 ng/mL	0.87		about 50%		
c1ccc(C(c2ccccc2)(c2ccc3ccccc3c2)N2CCOCC2)cc1 [Compound 33, 4-(Naphthalen-2-yl-diphenyl-methyl)-morpholine]	46%	0.54 ng/mL		1.22 ratio to vehicle	0.77 ng/mL	0.88			about 46%	0.59
COc1ccc(C(c2ccccc2)(c2ccccc2)N(C)C)cc1 [Compound 16]	35%	0.65 ng/mL								
CN(C)C(c1ccccc1)(c1ccccc1)c1ccccc1 [Compound 1]	8%	0.92 ng/mL								
c1ccc(C(NCC2CCCCC2)(c2ccccc2)c2ccccc2)cc1 [Compound 13, cyclohexylmethyl-trityl-amine]		0.49 ng/mL		1.16 ratio to vehicle	1.03 ng/mL	1.10				
